From patent US8569450B2, “CD3 epsilon immunogens and antibodies” (Health Research Inc., priority 2010, dated 2013)

System: anti-human detection antibody
Assay: CD3ε peptide ELISA, alkaline phosphatase based, peptides coated on Costar high binding plates
Design: species or system chicken
Conditions: single peptide coated on plate, plate blank subtracted, both peptides tested under the same conditions
Excerpt: The capture antibody of the CDR assay was produce by inoculation with 2 peptides. The sequence of these two peptides is AKAKPVTRGAGA (SEQ ID NO: 1) and LYSGLNQRRI (SEQ ID NO: 2) respectively. To determine the key immune-dominate region of the peptide, 12 variants of original peptide 1 (SEQ ID NO: 1) and 10 variants of original peptide 2 (SEQ ID NO: 2) were made with alanine substitution (or valine when alanine is the original amino acid). These were produced by GenScript, shipped, in solid form, at room temperature, to our lab and were dissolved in 1 ml of 0.05 TBS buffer.
Single peptides were coated on to Costar high binding 96 well plates at a concentration of 10 μg and 2 μg in 0.05 TBS buffer pH 7.4 in quadruplicate and tested in an alkaline phoshotase based ELISA. Plate blanks were subtracted from the optical densities obtained for each peptide. The peptides are compared to the original by percent of original signal. As noted in Table 1 the twelfth substitution was both an alanine at position twelve and a glutamic acid for threonine at position seven. This was an inadvertent oversight by the manufacturer.
The results from using a coating concentration of 2 μg/ml were similar.
The OD for original peptide 1 (SEQ ID NO: 1) was 1.5 and peptide 2 (SEQ ID NO: 2) elicited a signal of 1.0 when tested under the same conditions.

OD (optical density) by ELISA	Sequence
1.5	AKAKPVTRGAGA (listed as Homo sapiens) [original peptide 1, CD3 epsilon immunogen peptide, 12AA]
1.0	LYSGLNQRRI (listed as Homo sapiens) [peptide 2, CD3 epsilon immunogen peptide, 10AA]
